Results published in patent US9949980B2, “Drugs to prevent HPV infection” (Wisconsin Alumni Research Foundation, priority 2008, dated 2018).
Read-outs that look alike come from different tables or passages of the source.

Columns and labels:
[1] = system: HPV16 pseudoviruses; assay: microbe, parasite or virus in culture; format: cell-based; details: Human papillomavirus 16, HEK-293T, 48 h
Procedure: (§1) FIG. 1. High throughout screen (HTS) for identifying inhibitors of HPV infection. Shown is a schematic showing basic steps in the HTS. […] Briefly, HPV16 pseudoviruses containing the SEAP reporter genes are analyzed for their ability to infect as judged by the levels of secreted alkaline phosphatase in the tissue culture supernatant (light grey arrows). Cell viability was assessed in parallel on the same wells (dark grey arrows). In the specific HTS carried out in this study, the compounds were added at 3 uM/1% DMSO final concentration (black arrow) 4 hours prior to infection.
(§2) After incubation at 37° C. for 24 hrs, 35 μL of media was removed. […] Cells were incubated at 37° C. for 48 hrs. 2.5 μL of media was collected for SEAP assay using a PHOSPHA-LIGHT chemiluminescent alkaline phosphatase assay (Applied Biosystems). Cell viability was determined using the CellTiter Glo Luminescent Cell Viability Assay™ (Promega).

[2] = system: HPV16 pseudovirus; assay: Luciferase assay: HPV16 pseudovirus with renilla luciferase reporter (HPV16wpA-RL); details: renilla luciferase reporter behind HPV16 promoter
Procedure: The protocol for the secondary screen was identical to that of the primary screen with the exception that all volumes were scaled up by a factor of four. RL activity was measured using the Renilla Luciferase Assay System (Promega).

[3] = in vitro; details: human
Procedure: as §1, §2

[4] = read-out: Infectivity (SEAP Activity), 3 μM HTS standard concentration, 293T cells, 48 hrs
[5] = read-out: Infectivity vs. viability, 3 μM HTS standard concentration, ratio infectivity/viability
[6] = read-out: Primary HTS SEAP vs Viability, Table 2, first pair of columns (c2)
[7] = read-out: Primary HTS SEAP vs Viability, Table 2, second pair of columns (c4)
[8] = Primary HTS Viability % Average

SMILES	activity at 3 µM [1, 4]	activity at 3 µM [1, 5]	activity at 3 µM [1, 6]	activity at 3 µM [1, 7]	Luciferase assay RL % Average [2]	viability at 52 h, 3 μM [3, 8]	viability at 52 h, 3 μM ([3]; Viability (CelTiter Glow))
CCOC(=O)CCc1c(C)nc2c(C)c(-c3ccccc3)nn2c1O [Compound 1, ethyl 3-(7-hydroxy-3,5-dimethyl-2-phenylpyrazolo[1,5-a]pyrimidin-6-yl)propanoate]	22.9%	24.5%	13.1%	32.6%	64.85%	85%	93.4%
COc1cccc(NC(=O)c2ccc(C)c([N+](=O)[O-])c2)c1 [Compound 17, N-(3-methoxyphenyl)-4-methyl-3-nitrobenzamide]	43%	49.6%	32.9%	53.2%	92.15%	–	86.8%
Cc1cccc(NC(=O)Nc2ccc(C(C)(C)C)cc2)n1 [Compound 21, 1-(4-tert-butylphenyl)-3-(6-methylpyridin-2-yl)urea]	43.8%	47.2%	34.2%	53.5%	109.22%	92.8%	92.8%
CC(O)c1cccc(NC(=O)c2cc3n(n2)C(C(F)(F)F)CC(c2ccc(F)cc2)N3)c1 (stereo not drawn) [Compound 19, 5-(4-fluorophenyl)-N-[3-(1-hydroxyethyl)phenyl]-7-(trifluoromethyl)-4,5,6,7-tetrahydropyrazolo[1,5-a]pyrimidine-2-carboxamide]	40.8%	37.9%	50%	31.5%	88.74%	116%	107%
CN1C(=O)C(c2c[nH]c3ccccc23)(c2c[nH]c3ccccc23)c2ccccc21 [Compound 10, 1′-methyl-1H,1″H-3,3′:3′,3″-terindol-2′(1′H)-one]	38.8%	37%	34.4%	43.2%	30.72%	–	105%
O=C1NC(=S)SC1=Cc1ccc(Oc2ccc([N+](=O)[O-])cn2)cc1 [Compound 12, 5-{4-[(5-nitro-2-pyridinyl)oxy]benzylidene)-2-thioxo-1,3-thiazolidin-4-one]	28.3%	21.5%	39.4%	17.2%	105.80%	–	132%
Cc1ccccc1OCCc1c(C)n[nH]c1C [Compound 7, 3,5-dimethyl-4-[2-(2-methylphenoxy)ethyl]-1H-pyrazole]	36.9%	39.7%	32%	41.8%	68.26%	–	92.9%
O=C(N(c1cccc(C(F)(F)F)c1)C1C=CS(=O)(=O)C1)C(F)(F)F (stereo not drawn) [Compound 8, N-(1,1-dioxido-2,3-dihydro-3-thienyl)-2,2,2-trifluoro-N-[3-(trifluoromethyl)phenyl]acetamide]	27.7%	29.4%	37.3%	18.1%	177.47%	96.4%	94.4%
CCN1C(=O)c2cccc3c(NC(=O)c4ccc(S(=O)(=O)N(C)C)cc4)ccc1c23 [Compound 6, 4-[(dimethylamino)sulfonyl]-N-(1-ethyl-2-oxo-1,2-dihydrobenzo[cd]indol-6-yl)benzamide]	26.8%	26.6%	24.4%	29.3%	71.67%	–	101%
O=S1(=O)C=CC(Nc2cccc(C(F)(F)F)c2)C1 (stereo not drawn) [Compound 16, (1,1-dioxido-2,3-dihydro-3-thienyl)[3-(trifluoromethyl)phenyl]amine]	28.4%	30.6%	36.1%	20.6%	146.76%	98.2%	92.9%
Cc1ccccc1C(=O)N1CC(C)CC(C)C1 (stereo not drawn) [Compound 5, 3,5-dimethyl-1-(2-methylbenzoyl)piperidine]	22.9%	21.2%	29.5%	16.2%	102.39%	102%	108%
COc1cc(NC(=O)C=Cc2ccc(OC)c(Br)c2)c(OC)cc1Cl [Compound 5944623, 3-(3-bromo-4-methoxyphenyl)-N-(4-chloro-2,5-dimethoxyphenyl)acrylamide]	48.8%	49.5%	–	–	–	–	98.5%
CC(=O)SCCC(=O)N1CCn2c3c(c4cc(C)ccc42)CCCC31 (stereo not drawn) [Compound 5915049, S-[3-(8-methyl-1,2,3a,4,5,6-hexahydro-3H-pyrazino[3,2,1-jk]carbazol-3-yl)-3-oxopropyl] ethanethioate]	56.8%	55.9%	–	–	–	–	102%
CS(=O)(=O)N(CC(=O)Nc1cccc(Br)c1)c1ccc(Cl)cc1 [Compound 6218383, N~1~-(3-bromophenyl)-N~2~-(4-chlorophenyl)-N~2~-(methylsulfonyl)glycinamide]	47.4%	46.9%	–	–	–	–	101%
Cc1ccc(-c2cc(N)n(Cc3ccc(Cl)cc3)n2)cc1 [Compound 6077076, 1-(4-chlorobenzyl)-3-(4-methylphenyl)-1H-pyrazol-5-amine]	20.9%	28.1%	–	–	–	–	74.4%
O=c1oc2c3c4c(cc2cc1CCO)CCCN4CCC3 [Compound 6105180, 10-(2-hydroxyethyl)-2,3,6,7-tetrahydro-1H,5H,11H-pyrano[2,3-f]pyrido[3,2,1-ij]quinolin-11-one]	56.9%	49.5%	–	–	–	–	115%
CN(C)C=C=C(O)c1ccccc1C(=O)c1ccc(Cl)cc1 [BTB 08556, (4-chlorophenyl)-[2-(3-dimethylamino-1-hydroxypropa-1,2-dienyl)phenyl]methanone]	55.3%	52%	–	–	–	–	106%
Cc1nc2cc(-c3cccc(F)c3)nn2c(O)c1C [Compound 6156840, 2-(3-fluorophenyl)-5,6-dimethylpyrazolo[1,5-a]pyrimidin-7-ol]	63.5%	59.2%	–	–	–	–	107%
CCOc1cccc(C(=O)Nc2ccc(NC(=O)c3ccco3)c(OC)c2)c1 [Compound 6113089, N-{4-[(3-ethoxybenzoyl)amino]-2-methoxyphenyl}-2-furamide]	54.6%	52.9%	–	–	–	–	103%
O=C(Nc1ccccc1)Nc1nnc(Cc2ccc(F)cc2)s1 [Compound 5789300, N-[5-(4-fluorobenzyl)-1,3,4-thiadiazol-2-yl]-N′-phenylurea]	40.1%	40.8%	–	–	–	–	98.4%
O=C(NCc1ccccn1)C(=O)Nc1ccc([N+](=O)[O-])cc1 [Compound 6198885, N-(4-nitrophenyl)-N′-(2-pyridinylmethyl)ethanediamide]	57.5%	53.8%	–	–	–	–	107%
Cc1cc(OCC(=O)Nc2ccc(N3CCOCC3)c(Cl)c2)cc(C)c1Cl [Compound 6013775, 2-(4-chloro-3,5-dimethylphenoxy)-N-[3-chloro-4-(4-morpholinyl)phenyl]acetamide]	58.8%	56%	–	–	–	–	105%
COn1c(=O)c(=O)n(OC)c2ccccc21 [Compound 5896361, 1,4-dimethoxy-1,4-dihydro-2,3-quinoxalinedione]	60.8%	59.3%	–	–	–	–	102%
CCN(C(=O)c1ccccc1Cl)c1ccccc1 [Compound 5272305, 2-chloro-N-ethyl-N-phenylbenzamide]	47.4%	45.6%	–	–	–	–	104%
NC(=O)NC(c1ccccc1)c1ccccc1Br (stereo not drawn) [Compound 5571356, N-[(2-bromophenyl)(phenyl)methyl]urea]	59.1%	56%	–	–	–	–	106%
O=C1NCCCC1c1n[nH]c(=S)n1Cc1ccccc1 (stereo not drawn) [BTB 00471, 3-[4-(phenylmethyl)-5-sulfanylidene-1H-1,2,4-triazol-3-yl]piperidin-2-one]	41%	37.5%	–	–	–	–	109%
Oc1ccccc1C=NNc1nc2c(Cl)cc(Cl)cc2s1 [RF 02710, 2-hydroxybenzaldehyde N-(4,6-dichloro-1,3-benzothiazol-2-yl)hydrazone]	34.6%	36.4%	–	–	–	–	94.9%
